Reference: US6043386A, “Non-calcemic, antiproliferative, transcriptionally active 24-fluorinated hybrid analogs of 1α,-25-dihydroxy vitamin D3” (John Hopkins University, priority 1999, dated 2000)

Legend:
Male F344 rats = experiment: Determination of urinary calcium levels / hypercalcemic effects in vivo (FIG. 3); set-up: species or system rat; details: 1 microgram per kg per os, seven consecutive days
Procedure: Because of their high antiproliferative and transcriptional activities in vitro, fluorinated hybrid analogs, Structures 3b and 4b, are evaluated for hypercalcemic effects in vivo. The procedure utilized is described as follows:
Determination of urinary calcium levels.
(§1) Male F344 rats (150 g) are housed individually in glass metabolism cages and received food and water ad libitum. After several days acclimation, rats receive 1 microgram per kg body weight of test compound per os for seven consecutive days in 150 microliters of propylene glycol/0.05M Na2 HPO4 (80:20). Urine samples, which are collected on ice, were centrifuged at 650×g for 10 min, adjusted to pH 6.0 as necessary, and assayed for calcium content spectrophotometrically at 575 nm using reagents and standards from Sigma Calcium Kit #587.

[1] = body weight gain in rats treated daily for one week; format: in vivo, rat; details: 1 microgram per kg per os, seven consecutive days
Procedure: as §1

murine keratinocytes = experiment: in vitro antiproliferative activity in murine keratinocytes (FIG. 1); format: cell-based; details: for antiproliferative activities: 1α,3β vs. 1β,3α diastereomers; for antiproliferative activity relative to 1,25D3: even at physiologically relevant 7 nM concentrations
Procedure: Each of these new hybrid analogs (Structures 3 and 4 of Scheme I) is evaluated initially for in vitro antiproliferative activity in murine keratinocytes, using the protocol described in Posner et al., J. Med. Chem. 1992, 35, pp. 3280-3287. The procedure utilized is described as follows:
(§2) Murine B16 malignant melanoma cells are grown and propagated in RPMI medium supplemented with 10% fetal bovine serum, L-glutamine, penicillin, and streptomycin and incubated at 37° C. in 5% CO2. For proliferation studies, cells are washed with PBS, trypsinized, and suspended in 8 ml of supplemented RPMI medium. The cell density is then determined using a hemacytometer and cells are resuspended in RPMI at 10,000 cells/cm^3. One ml of cell suspension (10,000 cells) is added to each well of a Falcon 24 Well Flat Bottom Tissue Culture Plate (Becton-Dickinson, Lincoln Park, N.J.). Plates are incubated for 24 hours to allow for cell attachment. The medium is then removed and replaced with fresh RPMI medium containing either 0.4% solvent (isopropanol) or vitamin D analog at concentrations ranging from 1-1000 nM in triplicate. When control wells near confluence, cells are washed with PBS, trypsinized, and suspended in 10 ml of Isoton II Coulter Balanced EIectrolyte Solution in FISHERbrand Dilu-Vial cuvettes. Cell number is then determined for each well as an average of two readings on a ZM Coulter Counter. Results are expressed as the average cell number for each vitamin D analog treatment group divided by the intital cell number (N/N0). The average standard deviation of the N/N0 cell number measurements was 0.21 in FIG. 1 and 2.1 in FIG. 2.

[2] = system: Murine B16 malignant melanoma cells; experiment: Antiproliferative assays using malignant melanoma cells (FIG. 2); format: cell-based; details: even at 1 nM concentration
Procedure: Antiproliferative assays using malignant melanoma cells
as §2, with “The average standard deviation of the N/N0 cell number measurements was 0.21 in FIG. 1 and 2.1 in FIG. 2.” left out

vitamin D receptor = experiment: in vitro vitamin D receptor-mediated transcriptional activity in ROS 17/2.8 cells (growth hormone reporter); format: cell-based; details: 48 h, rat osteosarcoma ROS 17/2.8 cells, vitamin D responsive element of human osteocalcin gene, 2 days, read-out: ED50 (transcriptional potency)
Procedure: The procedure utilized is described as follows:
Transfections and transcriptional activity of the analogs.
Rat osteosarcoma ROS 17/2.8 cells are maintained in 50% Dulbecco's modified Eagle medium (DMEM) and 50% F12 nutrient mixture supplemented with 10% fetal bovine serum. Forty eight hours before transfections, the cells are plated in 35-mm dishes at a density of 10^5 /dish in DMEM and 10% fetal bovine serum. ROS 17/2.8 cells are transfected with 2 μg of plasmid containing the vitamin D responsive element from the human osteocalcin gene ([…]) attached to the thymidine kinase promoter/growth hormone fusion gene. […] Medium samples for measurements of reporter gene expression (growth hormone) are collected 2 days after transfection. Growth hormone is measured by a radioimmunoassay as described by the manufacturer (Nichols Institute, San Juan Capistrano, Calif.).

| Compound | calcium excretion into the urine (Male F344 rats) | suppression of body weight gain [1] | antiproliferative activities (murine keratinocytes) | antiproliferative activity relative to 1,25D3 (murine keratinocytes) | antiproliferative potency relative to 1,25D3 [2] | EC50 (vitamin D receptor) [nM] |
| --- | --- | --- | --- | --- | --- | --- |
| C=C1/C(=C\C=C2/CCC[C@]3(C)[C@@H]([C@H](C)CCCC(C)(C)O)CC[C@@H]23)C[C@@H](O)C[C@@H]1O [calcitriol, 1α,25-dihydroxy vitamin D3, reference compound] | marked excretion of calcium into the urine | suppression of body weight gain | – | – | – | – |
| C=C1/C(=C\C=C2/CCC[C@]3(C)C([C@H](C)CCC(F)(F)C(O)(CC)CC)=CC[C@@H]23)C[C@@H](O)C[C@@H]1CO [Structure 4a] | – | – | much less potent | – | – | – |
| C=C1/C(=C\C=C2/CCC[C@]3(C)C([C@H](C)CCC(F)(F)C(C)(C)O)=CC[C@@H]23)C[C@H](O)C[C@H]1CO [Structure 3b] | no calcium elevation above control | not observed | significant antiproliferative activities | at least equal to that of 1,25D3 | more potent antiproliferative agents than 1,25D3 | 0.2 |
| C=C1/C(=C\C=C2/CCC[C@]3(C)C([C@H](C)CCC(F)(F)C(C)(C)O)=CC[C@@H]23)C[C@@H](O)C[C@@H]1CO [Structure 3a] | – | – | much less potent | – | – | – |
| C=C1/C(=C\C=C2/CCC[C@]3(C)C([C@H](C)CCC(F)(F)C(O)(CC)CC)=CC[C@@H]23)C[C@H](O)C[C@H]1CO [Structure 4b] | no calcium elevation above control | not observed | significant antiproliferative activities | at least equal to that of 1,25D3 | more potent antiproliferative agents than 1,25D3 | 0.05 |
